Reference: patent publication US20240374535A1, “COMPOSITIONS AND METHODS FOR TREATING BIOFILM DISORDERS AND INFECTIONS” (AHV International B.V., priority 2021, published 2024)

Experiments:
[1] = system: cows with a SCC of more as 250.000 cells/ml; assay: In vivo mastitis test: somatic cell count (SCC) in milk after a single oral tablet; design: species or system cow; settings: single oral tablet (10 g), 60 days, FIG. 1
Procedure: Experiments were performed to examine the effect of compounds on the cell count or somatic cell count (SCC) in milk.
Somatic cell counts (SCC) is related to the amount of pathogens that are in the quarter visible for the immune system. The cell count of each cow was measured with the milk production registration (MPR). This MPR is done periodically every 30-40 days at all farms. The Somatic Cell Count (SCC) is a main indicator of milk quality. The majority of somatic cells are leukocytes (white blood cells)—which become present in increasing numbers in milk usually as an immune response to a mastitis-causing pathogen—and a small number of epithelial cells, which are milk-producing cells shed from inside of the udder when an infection occurs.
The SCC data was extracted from milk production registrations (MPRs). MPRs are databases showing all details (e.g. SCC) of the produced milk per individual cow. MPRs of the selected farms were available periodically. SCC is quantified as the number of cells per ml of milk. In general terms: an individual cow with a value for SCC of 100,000 or less indicates an ‘uninfected’ cow and there were no significant production losses due to subclinical mastitis. A threshold SCC above 250,000 indicates infection and counts between 100,000 to 250,000 indicate a high risk of infection.
The experiments were performed on a farm with 90 cows. Examination was performed on cell count with the above described tablets during 60 days.
Cows with a SCC of more as 250.000 cells/ml before treatment were selected for administration of a single tablet.

udder cleft wound = assay: In vivo udder cleft dermatitis test: wound assessment after spray treatment; design: species or system cow
Procedure: An example of a biofilm-related disorder is Udder Cleft Dermatitis (UCD), which relates to a chronic wound. In this Example, di-alkyl thiosulfonates, dialkyl thiosulfinates and di-alkyl disulfides were tested for their effect on cows affected by UCD.
Experiments were performed to examine the effect of various sprays containing water (control), a test compound, or a reference compound (CTC spray, which contains chlorotetracycline hydrochloride, and was obtained from Dechra veterinary products).
0.35 mL of the spray was sprayed on an udder cleft wound per treatment. Treatments took place once a day at t=0, at t=3 days and t=6 days. In Table 6, the assessment qualifications that are used in Table 7, are explained.

[2] = system: Staphylococcus epidermis ATCC 35984 biofilm; assay: MBEC assay (biofilm eradication, CFU log reduction); type: cell-based, S. epidermidis; settings: 48 h grown biofilm, 20 h treatment, CFU log reduction vs untreated
Procedure: (§1) The exact weighed amount was noted and the volume of solvent to reach a 80 mM dilution calculated. Half of the volume was added first, by adding Tween 80. In a second step, the other half of the volume DMSO was added and the closed tube inverted 5-10 times and then vortexed very thoroughly for at least 30 seconds. If after this procedure unsolved material was still visible, the tube was placed in a shaker at 37° C. at 150 rpm for at least 30 minutes. […] For the MBEC assay (method 1.3) the solution needs to be diluted to a final concentration of 2 mM in 0.9% saline solution and then further diluted to 1 mM, 0.5 mM, 0.25 mM and 0.125 mM in saline. Those dilutions were added as treatment to the 96 well plates with the grown biofilm (see method 3).
(§2) Frozen aliquots of Staphylococcus epidermis ATCC 35984 and Pseudomonas aeruginosa ATCC 27853 were used to inoculate 20 mL of Tryptic Soy Broth (TSB) in a 100 mL Erlenmeyer flask at 37° C. and 150 rpm and incubated overnight (Infors). The OD600 of the overnight culture was measured with a spectrophotometer (Evolution™ 201/220 UV-Visible Spectrophotometer, Thermo Fisher Scientific) and diluted to an OD600 of 0.2, which resembles 10^8 CFU/mL. The cell suspension of OD600=0.2 was seeded into a U-bottom-shaped 96 well plates by pipetting 100 μL per well in column 1-11, column 12 was filled with 100 μL medium as sterility control. The 96 well plates were sealed with adhesive polyethylene film for sealing microplates and incubated for 48 h at 37° C. at static conditions. After the biofilm growth phase, 100 μL of treatment solutions (method 1) were added to the vials resulting in treatment concentrations of 1 mM, 0.5 mM, 0.25 mM and 0.125 mM and with the respective concentration of Tween 80 and DMSO each at 0.63%, 0.32%, 0.16% and 0.08%. The same concentration was applied to four different wells of the same bacterial strain, resulting in four replicates for each concentration and strain. The treatment was incubated for 20 h at 37° C. at static conditions. After the treatment the supernatant was carefully removed and the well with the biofilm washed carefully for one time with 200 μL 0.9% saline solution. 200 μL saline solution was added and the biofilm was resuspended thoroughly. When fully homogenized then 20 μL was used for the first dilution in 180 μL 0.9% saline solution, which was prepared in a second plate. This dilution was continued until dilution step 10E−5 and 100 μL of the 10E−4 and 10E−5 dilution plated on a TSA plate. The TSA plates were incubated at 37° C. for 24 h. The colonies on the plates were enumerated, the colony forming units per mL of the dispensed biofilm and averages thereof and the log reduction in comparison with the untreated sample from the same wells plate calculated. Reduction of colony forming units goes hand in hand with the thickness of the biofilm and thus with the number bacteria that are present in the biofilm. Therefore, a significant reduction of colony forming units in the biofilm was defined at the value of log reduction ≥1 or more. This assay was repeated two times in two independent experiments)

[3] = system: Pseudomonas aeruginosa ATCC 27853; assay: MIC assay (planktonic growth inhibition, OD600); type: cell-based, P. aeruginosa; settings: Pseudomonas aeruginosa, ATCC27853, 24 h at 37° C.
Procedure: as §1
(§3) Frozen aliquots of Staphylococcus epidermis ATCC 35984 and Pseudomonas aeruginosa ATCC 27853 were used to inoculate a tryptic soy agar (TSA) plate and incubated overnight at 37° C. After incubation 3-5 well-isolated colonies with the same morphology were selected from the TSA plate and resuspended in 2 mL 0.9% saline solution with 3-6 glass beads and vortexed. The optical density at 600 nm (OD600) of the bacterial suspension was measured with a spectrophotometer (Evolution™ 201/220 UV-Visible Spectrophotometer, Thermo Fisher Scientific) and diluted to an OD600 of 0.0008, which resembles 10^6 CFU/mL.
(§4) The MIC assay was performed in a flat-bottom 96-microtiter plate. 50 μL of MHB-II was added into columns 2-11, and 100 μL to column 12 for sterility control. 100 μL of the 8 mM test compound solution (method 1) was added to column 1. A two-fold dilution series of the solution in MHB-II was achieved by resuspending 50 μL of the 8 mM solution from column 1 to column 2. This step was repeated until column 10. The respective concentration of Tween 80 and DMSO in column 1 was 2.5%, which is two-fold diluted throughout the plate. 50 μL of the bacterial suspension was added to column 1-11. The microtiter plates were sealed with adhesive polyethylene film for sealing microplates (Diversified Biotech) and incubated for 24 h at 37° C. After incubation the OD was measured at 600 nm with the Varioskan (Thermo Fisher Scientific). […] This assay was repeated three times in three independent experiments.

[4] = system: Staphylococcus epidermis ATCC 35984; assay: MIC assay (planktonic growth inhibition, OD600); type: cell-based, S. epidermidis; settings: 24 h at 37° C.
Procedure: as §1, §3, §4

[5] = system: Pseudomonas aeruginosa ATCC 27853 biofilm; assay: MBEC assay (biofilm eradication, CFU log reduction); type: cell-based, P. aeruginosa; settings: 48 h grown biofilm, 20 h treatment, CFU log reduction vs untreated
Procedure: as §1, §2

O=[SH](O)=S.c1ccc(-c2ccccc2)cc1 [Di-phenyl thiosulfonate, phenyl benzene thiosulfonate]
somatic cell count (SCC) of milk [1]: significantly decreased
inflammation of the udder cleft wound after treatment (udder cleft wound; immediately after the treatment, later infection reduced and wound healed): fast inflammation reduction
Conclusion (effect on udder cleft wound) (udder cleft wound; over 60 days, all cows of the group): Positive effect
S. epidermidis MBEC mM with log reduction ≥1 [2]: 2 mM
MIC50 ([3]; minimal concentration reducing final OD600 by 50%, read-out: P. aeruginosa MIC50): 2000 µM
MIC90 ([3]; minimal concentration reducing final OD600 by 90%, read-out: P. aeruginosa MIC90): 2000 µM
MIC50 ([4]; minimal concentration reducing final OD600 by 50%, read-out: S. epidermidis MIC50): 1000 µM
MIC90 ([4]; minimal concentration reducing final OD600 by 90%, read-out: S. epidermidis MIC90): 2000 µM
P. aeruginosa MBEC mM with log reduction ≥1 [5]: >4 mM
